The values below come from patent publication US9695154B2, “Heteroaryl inhibitors of sumo activating enzyme” (MILLENNIUM PHARMACEUTICALS, INC., priority 2013, dated 2017).

The structures appear in SMILES notation.

This experiment has as its target T1, recombinant human SAE enzyme (Homo sapiens, UniProt Q9UBT2).
T1 sequence (Q9UBT2 1-640): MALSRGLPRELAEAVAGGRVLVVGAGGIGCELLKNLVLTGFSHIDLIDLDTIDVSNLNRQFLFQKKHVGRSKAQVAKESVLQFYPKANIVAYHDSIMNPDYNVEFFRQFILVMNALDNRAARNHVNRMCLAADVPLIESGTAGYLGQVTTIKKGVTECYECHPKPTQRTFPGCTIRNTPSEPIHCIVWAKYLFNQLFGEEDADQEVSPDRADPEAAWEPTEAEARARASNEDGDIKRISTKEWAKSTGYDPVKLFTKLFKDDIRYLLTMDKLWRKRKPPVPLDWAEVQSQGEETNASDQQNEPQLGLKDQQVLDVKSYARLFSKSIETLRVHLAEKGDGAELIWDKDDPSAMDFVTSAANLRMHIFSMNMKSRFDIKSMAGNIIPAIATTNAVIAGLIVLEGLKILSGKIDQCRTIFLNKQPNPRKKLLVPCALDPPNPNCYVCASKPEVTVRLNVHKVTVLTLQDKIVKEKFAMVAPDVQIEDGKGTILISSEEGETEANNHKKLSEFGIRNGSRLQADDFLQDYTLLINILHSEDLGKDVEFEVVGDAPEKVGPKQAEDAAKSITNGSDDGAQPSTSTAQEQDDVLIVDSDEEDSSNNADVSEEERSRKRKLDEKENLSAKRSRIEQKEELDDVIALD
T1 sequence (Q9UBE0 1-346 partner): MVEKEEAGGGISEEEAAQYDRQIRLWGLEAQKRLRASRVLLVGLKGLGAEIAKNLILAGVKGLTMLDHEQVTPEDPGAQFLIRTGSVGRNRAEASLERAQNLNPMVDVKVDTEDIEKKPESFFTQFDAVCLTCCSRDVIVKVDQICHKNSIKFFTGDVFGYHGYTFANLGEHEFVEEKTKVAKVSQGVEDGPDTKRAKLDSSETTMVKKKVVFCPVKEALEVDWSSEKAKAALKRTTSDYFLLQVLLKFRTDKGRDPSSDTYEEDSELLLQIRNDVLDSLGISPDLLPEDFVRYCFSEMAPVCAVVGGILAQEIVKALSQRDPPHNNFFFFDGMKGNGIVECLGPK
In words: SAE HTRF Enzyme Assay. Format: biochemical. The settings on record: for IC50: class symbols A-C; for Percent Inhibition / inhibition at 0.111 µM: compound concentration 0.111 μM; for Percent Inhibition: 0.111 µM; for inhibition at 0.111 µM: read-out: Percent Inhibition. Here is the method: The SAE enzymatic reaction totals 50 μl and contains 50 mM HEPES Hemisodium (pH 7.5), 0.05% BSA, 5 mM MgCl2, 0.5 μM ATP, 250 μM GSH, 0.01 μM Ubc9-GST, 0.125 μM Sumo-Flag and 0.11 nM recombinant human SAE enzyme. The enzymatic reaction mixture with and without inhibitor, Is incubated at 24° C. for 105 min in a 384-well plate before termination with […] of Stop/Detection buffer (0.1M HEPES Hemisodium pH 7.5, 0.05% Tween20, 20 mM EDTA, 410 mM KF, 0.53 nM Europium-Cryptate labeled monoclonal anti-Flag M2 Antibody (CisBio International) and 8.125 μg/ml PHYCOLINK goat anti-GST allophycocyanin (XL-APC) antibody (Prozyme)). After incubation for 2 hours at 24° C., quantification of FRET is performed on the Pherostar™ (BMG Labtech). Percentage inhibition values at a single concentration or enzyme inhibition (IC50) values are determined from those curves. One skilled in the art will appreciate that the values generated either as percentage inhibition at a single concentration or IC50 values are subject to experimental variation.

As for `NS(=O)(=O)OC[C@H]1C[C@@H](Nc2ncncc2C(=O)c2ccn(C3CCc4ccccc43)n2)[C@H](O)[C@@H]1O` (single isomer, unassigned) [Compound I-353, {(1R,2R,3S,4R)-4-[(5-{[1-((1R)-2,3-dihydro-1H-inden-1-yl)-1H-pyrazol-3-yl]carbonyl}pyrimidin-4-yl)amino]-2,3-dihydroxycyclopentyl}methyl sulfamate or {(1R,2R,3S,4R)-4-[(5-{[1-((1S)-2,3-dihydro-1H-inden-1-yl)-1H-pyrazol-3-yl]carbonyl}pyrimidin-4-yl)amino]-2,3-dihydroxycyclopentyl}methyl sulfamate], the IC50 was in the range of 10 to 100 nM and the “Percent Inhibition” value was found to be 90%.

Take `CC(c1ccc(Cl)o1)n1ccc(C(=O)c2cncnc2N[C@@H]2C[C@H](COS(N)(=O)=O)[C@@H](O)C2)n1` (single isomer, unassigned) [Compound I-354, [(1R,2S,4R)-4-{[5-({1-[(1 S)-1-(5-chloro-2-furyl)ethyl]-1H-pyrazol-3-yl}carbonyl)pyrimidin-4-yl]amino}-2-hydroxycyclopentyl]methyl sulfamate or [(1R,2S,4R)-4-{[5-({1-[(1R)-1-(5-chloro-2-furyl)ethyl]-1H-pyrazol-3-yl}carbonyl)pyrimidin-4-yl]amino}-2-hydroxycyclopentyl]methyl sulfamate]: the IC50 is 10 to 100 nM and the inhibition at 0.111 µM turned out to be 79%.

As for `C#Cc1cccc([C@H](C)n2ccc(C(=O)c3cncnc3N[C@@H]3C[C@H](COS(N)(=O)=O)[C@@H](O)C3)n2)c1` (single isomer, unassigned) [Compound I-355], the IC50 was < 10 nM and the inhibition at 0.111 µM was 99%.

For the molecule `CCC(c1cccc(Br)c1)n1ccc(C(=O)c2cncnc2N[C@@H]2C[C@H](COS(N)(=O)=O)[C@@H](O)[C@@H]2F)c1` (single isomer, unassigned) [Compound I-356, [(1R,2R,3R,4R)-4-{[5-({1-[(1S)-1-(3-bromophenyl)propyl]-1H-pyrrol-3-yl}carbonyl)pyrimidin-4-yl]amino}-3-fluoro-2-hydroxycyclopentyl]methyl sulfamate or [(1R,2R,3R,4R)-4-{[5-({1-[(1R)-1-(3-bromophenyl)propyl]-1H-pyrrol-3-yl}carbonyl)pyrimidin-4-yl]amino}-3-fluoro-2-hydroxycyclopentyl]methyl sulfamate], the half-maximal inhibitory concentration (IC50) was 10 to 100 nM and the “Percent Inhibition” value was found to be 85%.

Regarding `CC(c1ccc(C(F)(F)F)o1)n1ccc(C(=O)c2cncnc2N[C@@H]2C[C@H](COS(N)(=O)=O)[C@@H](O)[C@@H]2F)c1` (single isomer, unassigned) [Compound I-357, [(1R,2R,3R,4R)-3-fluoro-2-hydroxy-4-({5-[(1-{(1S)-1-[5-(trifluoromethyl)-2-furyl]ethyl}-1H-pyrrol-3-yl)carbonyl]pyrimidin-4-yl}amino)cyclopentyl]methyl sulfamate or [(1R,2R,3R,4R)-3-fluoro-2-hydroxy-4-({5-[(1-{(1R)-1-[5-(trifluoromethyl)-2-furyl]ethyl}-1H-pyrrol-3-yl)carbonyl]pyrimidin-4-yl}amino)cyclopentyl]methyl sulfamate], the IC50 is < 10 nM and the “Percent Inhibition” value stood at 100%.

As to `CC(c1cccc(Br)c1)n1ccc(C(=O)c2cncnc2N[C@@H]2C[C@H](COS(N)(=O)=O)[C@@H](O)C2)n1` (single isomer, unassigned) [Compound I-358, [(1R,2S,4R)-4-{[5-({1-[(1S)-1-(3-bromophenyl)ethyl]-1H-pyrazol-3-yl}carbonyl)pyrimidin-4-yl]amino}-2-hydroxycyclopentyl]methyl sulfamate or [(1R,2S,4R)-4-{[5-({1-[(1R)-1-(3-bromophenyl)ethyl]-1H-pyrazol-3-yl}carbonyl)pyrimidin-4-yl]amino}-2-hydroxycyclopentyl]methyl sulfamate], the concentration for half-maximal inhibition (IC50) is < 10 nM and the “Percent Inhibition” value worked out at 95%.

Consider `NS(=O)(=O)OC[C@H]1C[C@@H](Nc2ncncc2C(=O)c2ccn(CC3CC3c3ccccc3)c2)[C@@H](F)[C@@H]1O` (single isomer, unassigned) [Compound I-359, [(1R,2R,3R,4R)-3-fluoro-2-hydroxy-4-{[5-({1-[(1R,2R)-(2-phenylcyclopropyl)methyl]-1H-pyrrol-3-yl}carbonyl)pyrimidin-4-yl]amino}cyclopentyl]methyl sulfamate or [(1R,2R,3R,4R)-3-fluoro-2-(hydroxy-4-{[5-({1-[(1S,2S)-(2-phenylcyclopropyl)methyl]-1H-pyrrol-3-yl}carbonyl)pyrimidin-4-yl]amino}cyclopentyl]methyl sulfamate], for which the concentration for half-maximal inhibition (IC50) is 10 to 100 nM and the “Percent Inhibition” value stood at 68%.

Take `CC(c1cccc(Cl)c1)n1ccc(C(=O)c2cncnc2N[C@@H]2C[C@H](COS(N)(=O)=O)[C@@H](O)C2)n1` (single isomer, unassigned) [Compound I-360, [(1R,2S,4R)-4-{[5-({1-[(1S)-1-(3-chlorophenyl)ethyl]-1H-pyrazol-3-yl}carbonyl)pyrimidin-4-yl]amino}-2-hydroxycyclopentyl]methyl sulfamate or [(1R,2S,4R)-4-{[5-({1-[(1R)-1-(3-chlorophenyl)ethyl]-1H-pyrazol-3-yl}carbonyl)pyrimidin-4-yl]amino}-2-hydroxycyclopentyl]methyl sulfamate]: the IC50 is < 10 nM and the “Percent Inhibition” value is recorded as 99%.

With `CC(c1ccccc1)n1ccc(C(=O)c2cncnc2N[C@@H]2C[C@H](COS(N)(=O)=O)[C@@H](O)[C@H]2O)n1` (single isomer, unassigned) [Compound I-361, {(1R,2R,3S,4R)-2,3-dihydroxy-4-[(5-{[1-((1S)-1-phenylethyl)-1H-pyrazol-3-yl]carbonyl}pyrimidin-4-yl)amino]cyclopentyl}methyl sulfamate or {(1R,2R,3S,4R)-2,3-dihydroxy-4-[(5-{[1-((1R)-1-phenylethyl)-1H-pyrazol-3-yl]carbonyl}pyrimidin-4-yl)amino]cyclopentyl}methyl sulfamate], the IC50 was 10 to 100 nM and the “Percent Inhibition” value turned out to be 85%.

As for `CC#CC(C)n1ccc(C(=O)c2cncnc2N[C@@H]2C[C@H](COS(N)(=O)=O)[C@@H](O)C2)n1` (single isomer, unassigned) [Compound I-362, {(1R,2S,4R)-2-hydroxy-4-[(5-{[(1S)-1-(pent-3-yn-2-yl)-1H-pyrazol-3-yl]carbonyl}pyrimidin-4-yl)amino]cyclopentyl}methyl sulfamate or {(1R,2S,4R)-2-hydroxy-4-[(5-{[(1R)-1-(pent-3-yn-2-yl)-1H-pyrazol-3-yl]carbonyl}pyrimidin-4-yl)amino]cyclopentyl}methyl sulfamate], the IC50 lay within 10 to 100 nM and the inhibition at 0.111 µM was found to be 52%.

As to `CC(c1cccc(Br)c1)n1ccc(C(=O)c2cncnc2N[C@@H]2C[C@H](COS(N)(=O)=O)[C@@H](O)[C@@H]2F)c1` (single isomer, unassigned) [Compound I-363, [(1R,2R,3R,4R)-4-{[5-({1-[(1S)-1-(3-bromophenyl)ethyl]-1H-pyrrol-3-yl}carbonyl)pyrimidin-4-yl]amino}-3-fluoro-2-hydroxycyolopentyl]methyl sulfamate or [(1R,2R,3R,4R)-4-{[5-({1-[(1R)-1-(3-bromophenyl)ethyl]-1H-pyrrol-3-yl}carbonyl)pyrimidin-4-yl]amino}-3-fluoro-2-hydroxycyclopentyl]methyl sulfamate], the 50% inhibitory concentration (IC50) is < 10 nM and the “Percent Inhibition” value worked out at 100%.
